Laboratory results taken from patent US9475854B2, “Lead compound for otoprotection: targeting HGF signaling with dihexa” (Washington State University, priority 2014, dated 2016).
Square brackets hold non-standard residues; d marks the D form. Peptide text beside a SMILES is read from it. * marks the point of attachment. Hexanoyl = CCCCCC(=O)*; Ahx = NCCCCCC(=O)O

Tests used:
rats = settings: in vivo in rats (Owens et al., 2008, Rubel et al., 2011); cited from earlier work
[1] = Short duration safety studies; format: in vivo
Description: This is unsurprising since oncogenesis requires multiple mutations including both oncogene induction and tumor suppressor attenuation. Accordingly, Dihexa, as utilized herein, can also be delivered locally via intratympanic membrane injection of a Dihexa-containing hydrogel (e.g., Salt et al., 2011; Wang et al., 2011) as a way of the proof-of-principle that Dihexa is robustly otoprotective in for example, but not limited to, pre-clinical models.

[2] = test system: zebrafish lateral line hair cells; assay: Protection of zebrafish lateral line hair cells from aminoglycoside toxicity (hair cell survival); format: in vivo; settings: for hair cell survival rate: 1 μM Dihexa
Description: The data is presented as mean+1 standard deviation (s.d.) ***p<0.005. ****p<0.001, with the number of stars being the confidence for the measurements and the p (i.e., p-value) being the probability of obtaining a test statistic result at least as extreme as the one that was actually observed. It is to be appreciated the differences are considered significant at P<0.05. Note also that the 0 Dihexa concentration levels in FIG. 1 and FIG. 2 are control levels no protective Dihexa was introduced as just Neomycin and Gentamicin is present in the hair cells.
Such an example method of operation can be enabled by providing Dihexa concentrations for each ototoxin. […] Toxin concentrations and treatment times are selected so that in each case, a range of about 60% up to about 80% hair cell loss is achieved, sufficient to robustly detect protection. While the methodology described above provides desirable information for a variety of ototoxins, the Dihexa-mediated protection for neomycin, gentamicin, and kanamycin, as enabled herein, is the most desirable because these three antibiotics activate partially independent cell death pathways, such that a single compound may not universally protect hair cells from aminoglycoside toxicity (Owens et al., 2009; Coffin et al., 2009; Vlasits et al., 2012; Coffin et al., 2013).
As part of the analysis process, after treatment, hair cell survival is more often quantitatively assessed by labeling with either the vital dye DASPEI for assessment in live, anesthetized fish, or with an antibody to parvalbumin for quantification in fixed tissue (Harris et al., 2003; Owens et al., 2009; Coffin et al., 2009, 2013). DASPEI allows for rapid assessment with minimal tissue processing time, while immunofluorescence is used to validate DASPEI assessment scores. Labeled hair cells are thereafter viewed using fluorescence microscopy and quantified as described in the published literature (e.g., Harris et al., 2003; Coffin et al., 2009, 2013). […]

[3] = test system: rat Parkinson's Disease model; settings: in vivo administration (McCoy et al., 2013; unpublished data); cited from earlier work
rat dementia model = settings: in vivo administration (McCoy et al., 2013; unpublished data); cited from earlier work

Structure (SMILES) | protection from aminoglycosides (rats) | neoplastic induction [1] | toxicity [1] | protection from Neomycin-induced hair cell death ([2]; 1 μM Dihexa across Neomycin dose levels, FIG. 3) | hair cell survival rate ([2]; 50 μM Gentamycin toxicity, FIG. 2) | hair cell survival rate ([2]; 200 μM Neomycin toxicity, FIG. 1) | symptoms in rat Parkinson's Disease model [3] | symptoms in rat dementia model (rat dementia model)
CCN1CCc2c(sc(NC(=O)Nc3ccc(Cl)cc3)c2C(N)=O)C1 [PROTO-1] | confers protection |  |  |  |  |  |  | 
CCCCCC(=O)N[C@@H](Cc1ccc(O)cc1)C(=O)N[C@H](C(=O)NCCCCCC(N)=O)[C@@H](C)CC [Dihexa] (Hexanoyl-Tyr-Ile-[Ahx]-NH2) |  | lack of neoplastic induction | no apparent toxicity | robust protection | greater than 40% | greater than 60% | significantly attenuates symptoms | significantly attenuates symptoms
